We go through four molecules from ChEMBL document CHEMBL1140181, “Tyrianthinic acids from Ipomoea tyrianthina and their antimycobacterial activity, cytotoxicity, and effects on the central nervous system” (2008).

Test [1] concerns Mus musculus. Nature of the test: Anticonvulsant activity in mouse assessed as protection of pentylenetetrazole-induced seizure at 40 mg/kg, ip. It is filed as functional. To be noted: route intraperitoneal.
The test system of another test is OVCAR-5. In words: Cytotoxicity against human OVCAR5 cells. To be noted: read-out: ED50 (the source's name). It is filed as functional.
Test [2] deals with Mycobacterium tuberculosis. In words: Antimicrobial activity against Mycobacterium tuberculosis H37Rv ATTC 27294 by alamar blue assay. It is filed as functional.
The subject of test [3] is Mus musculus. Nature of the test: Anticonvulsant activity in mouse assessed as effect on pentobarbital-induced increase in hypnosis latency at 10 mg/kg, ip. It is filed as functional, organism-based. Also on record: dose 10 mg/kg.
The next test relates to HCT-15. Nature of the test: Cytotoxicity against human HCT15 cells. It is filed as functional. To be noted: read-out: ED50 (the source's name).
The test system of a further test is KB. Nature of the test: Cytotoxicity against human KB cells. It is filed as functional. To be noted: read-out: ED50 (the source's name).
Test [4] can be described thus: Cytotoxicity against human UISO-SQC-1 cells. It is filed as functional. Conditions: UISO-SQC1, read-out: ED50 (the source's name).
Test [5] is filed under the species Mus musculus. In words: Increase in GABA level in mouse brain at 4 ug/mL after 90 seconds. It is filed as functional, organism-based.

≈ marks a conversion by molar mass, not a printed value. Calls of active or inactive are those of the source. No cut-off for these calls is given here. Bounds are passed on as bounds.

What is called MIC is the lowest concentration that inhibits growth of the organism. Consider `C/C=C(\C)C(=O)O[C@H]1[C@H](O)[C@@H](O)[C@H](O[C@@H]2[C@@H](O)[C@@H](OC(=O)C(C)CC)[C@H](O[C@H]3[C@H](O[C@H]4[C@H](O[C@H](CCCCC)CCCCCCCCCC(=O)O)O[C@H](C)[C@@H](O)[C@@H]4O)O[C@H](CO)[C@@H](O)[C@@H]3O)O[C@H]2C)O[C@@H]1C` (stereo not given in full) [THYRIANTHINIC ACID II], for which the Activity in the test with Mus musculus [1] is 70%. The EC50 with OVCAR-5 is more than 5 µg/mL; with HCT-15, more than 5 µg/mL; in the test on KB it was 2.8 µg/mL (≈ 2.69 µM); in test [4] it was more than 5 µg/mL. In test [2], this molecule registered an MIC of 25 µg/mL (≈ 24.1 µM). Besides, the outcome in the test on Mus musculus [3] was Active.
As to `CCCCC[C@H](CCCCCCCCCC(=O)O)O[C@@H]1O[C@H](C)[C@@H](O)[C@H](O)[C@H]1O[C@@H]1O[C@H](CO)[C@@H](O)[C@H](O)[C@H]1O[C@@H]1O[C@@H](C)[C@H](O[C@@H]2O[C@H](C)[C@@H](OC(=O)C(C)C(C)O)[C@H](O)[C@H]2O)[C@@H](O)[C@H]1OC(=O)C(C)CC` (stereo not given in full) [THYRIANTHINIC ACID I], the Activity in the test on Mus musculus [1] is given as 70%. Also, the EC50 in the test with OVCAR-5 was more than 5 µg/mL; in the test on HCT-15, more than 5 µg/mL; in the test on KB it was 2.6 µg/mL (≈ 2.46 µM); in test [4] it was more than 5 µg/mL. The molecule also yielded an MIC in test [2] of 25 µg/mL (≈ 23.6 µM). Also, the outcome in the test with Mus musculus [3] was Active.
As to `C/C=C(\C)C(=O)O[C@H]1[C@@H]2O[C@H]3[C@H](O[C@H]4[C@H](OC(CCCCC)CCCCCCCCCC(=O)O[C@@H]1[C@H](O[C@H]1O[C@H](C)[C@H](O)[C@@H](O)[C@H]1O)[C@@H](C)O2)O[C@H](C)[C@H](O)[C@H]4O)O[C@H](CO)[C@H](O)[C@H]3O` (stereo not given in full) [TYRIANTHIN 8], the Activity in the test with Mus musculus [1] was 70%. Besides, the EC50 was more than 5 µg/mL in the test with OVCAR-5, more than 5 µg/mL with HCT-15, 2.2 µg/mL (≈ 2.35 µM) in the test on KB and more than 5 µg/mL in test [4]. In test [2], this molecule registered an MIC of 25 µg/mL (≈ 26.7 µM). For the same molecule, the result with Mus musculus [3] and in the test filed under Mus musculus [5] was Active.
Turning to `CCCCCC1CCCCCCCCCC(=O)O[C@H]2[C@@H](OC(=O)CC)[C@H](O[C@H]3[C@H](O[C@H]4[C@H](O1)O[C@H](C)[C@H](O)[C@H]4O)O[C@H](CO)[C@H](O)[C@H]3O)O[C@H](C)[C@H]2O[C@H]1O[C@H](C)[C@H](O)[C@@H](O)[C@H]1O` (stereo not given in full) [TYRIANTHIN 9], the Activity in the test on Mus musculus [1] turned out to be 70%. The EC50 in the test with OVCAR-5 is more than 5 µg/mL; with HCT-15 it was more than 5 µg/mL; with KB, 2.5 µg/mL (≈ 2.74 µM); in test [4], more than 5 µg/mL. In addition, it took 25 µg/mL (≈ 27.4 µM) to inhibit growth in test [2] (MIC). The outcome in the test on Mus musculus [3] and in the test listed under Mus musculus [5] was Active.
